Test results taken from patent publication US9732078B2, “Therapeutic use of imidazopyridine derivatives” (SANOFI, priority 2012, dated 2017).

Tests used:
[1] = test system: TCC97-7 bladder cancer tumour cells carrying the Ser249Cys mutation of FGF receptor 3; experiment: Inhibition of serum-induced proliferation of TCC97-7 bladder cancer cells (count of Hoechst 33342-labelled nuclei after 3 days); format: cell-based; details: 72 h, TCC97-7 cells in presence of serum
Procedure: To do this, 2000 cells are seeded in the morning in 50 μl of complete medium (Ham-F/12, 1% FCS, 2 mM glutamine, non-essential amino acids, sodium pyruvate, 1% insulin/transferrin/selenium, hydrocortisone). In the evening, 50 μl of the various compounds are added at 0.02, 0.2, 2 or 20 μM after dilution in complete culture medium in order to obtain final concentrations of 0.01, 0.1, 1 and 10 μM. After 3 days, the cell proliferation is evaluated by measuring the number of nuclei at the bottom of each well corresponding to a number of cells. The nuclei are detected by means of labelling with Hoechst 33342 (Invitrogen, ref H3570). 100 μl of Hoechst 33342 diluted to 1/5000th in PBS are added to each well for 30 min at ambient temperature on non-fixed cells. The nuclei are detected by fluorescence at 350 nm at ×2 magnification with an Operetta (PerkinElmer) using the Acapella (PerkinElmer) imaging software and analysed using the Columbus (PerkinElmer) image analysis software. The percentage inhibition of the cell proliferation is calculated by considering the number of nuclei present in the wells in which the TCC97-7 cells are cultured in the absence of FGF-R antagonists to be 0% inhibition. 100% inhibition would correspond to a well no longer containing cells.

[2] = Cytotoxic effect: percentage of permeabilized (very fluorescent, Hoechst 33342) TCC97-7 cells; format: cell-based; details: human, read-out: Cytotoxicity (% of permeable cells)
Procedure: In parallel to their antiproliferative capacity, the potential cytotoxic effect of the FGF-R antagonists is measured by means of quantifying the number of cells of which the membranes are permeabilized. The appearance of pores in the plasma membrane of the cells corresponds to a state of cell death which enables the Hoechst 33342 to penetrate more easily into the cell. This is reflected by a very strong increase in the amount of fluorescence detected in the nuclei. The percentage of cells in a state of cell death is calculated by the ratio between the number of very fluorescent nuclei to the total number of nuclei, multiplied by 100. The observations are carried out in the same way as the quantification of the nuclei for the cell proliferation.

[3] = test system: TCC97-7 bladder cancer cells carrying the Ser249Cys mutation of FGF receptor 3; experiment: Reduction of intracellular ATP content of TCC97-7 cells (Cell Titer-Glo, 3 days, serum-supplemented medium); format: cell-based; details: 72 h, TCC97-7 cells in presence of serum, read-out: Inhibition of the amount of intracellular ATP (%)
Procedure: Evaluation of the Capacity of the FGF-R Antagonists to Reduce the ATP Content of TCC97-7 Bladder Cancer Cells Carrying the Ser249Cys Mutation of FGF Receptor 3, Cultured in a Serum-Supplemented Medium
To do this, 3000 cells are seeded in 50 μl of complete medium (Ham-F/12, 1% FCS, […], non-essential amino acids, sodium pyruvate, 1% insulin/transferrin/selenium, hydrocortisone). 16 hours later, 50 μl of the various compounds are added at 0.2, 2, 20 and 60 μM after dilution in complete culture medium in order to obtain final concentrations of 0.1, 1, 10 and 30 μM. After 3 days, the ATP content of the cells is measured using the Cell Titer-Glo® Luminescent Cell Viability Assay kit (Promega, France) according to the supplier's recommendations. The percentage inhibition of the amount of intracellular ATP is calculated by considering the ATP content of the cells cultured in the absence of antagonist to be 0% inhibition. 100% inhibition would correspond to a well in which the ATP content is zero.

In the case of `CN(C)CCNC(=O)c1cccc(-c2nc(C(=O)c3ccc4c(c3)c(=O)n(Cc3ccc(F)cc3)c(=O)n4C)n3ccccc23)c1.Cl` [compound 116, N-[2-(dimethylamino)ethyl]-3-(3-{[3-(4-fluorobenzyl)-1-methyl-2,4-dioxo-1,2,3,4-tetrahydroquinazolin-6-yl]carbonyl}imidazo[1,5-a]pyridin-1-yl)benzamide hydrochloride], the melting point is reported as 247 °C, the inhibition at 0.01 µM ([1]; 0.01 μM) is reported as -1% and the inhibition at 0.1 µM ([1]; 0.1 μM) is reported as -3%. For the same compound, the inhibition at 1 µM ([1]; 1 μM) was 22%, the inhibition at 10 µM ([1]; 10 μM) was 83% and the cytotoxicity at 3 days, 0.01 µM ([2]; 0.01 μM) was 2%. The cytotoxicity at 3 days, 0.1 µM ([2]; 0.1 μM) was 2%, the cytotoxicity at 3 days, 1 µM ([2]; 1 μM) was 2% and the cytotoxicity at 3 days, 10 µM ([2]; 10 μM) was 3%. The inhibition at 0.1 µM ([3]; 0.1 μM) was 6%, the inhibition at 1 µM ([3]; 1 μM) was 9% and the inhibition at 10 µM ([3]; 10 μM) was 95%.
